Data set [1] addresses T1, bovine serum albumin (BSA) (Bos taurus, UniProt P02769). As to the method: (§1) Bovine serum albumin (≥96%) was used to prepare 1.2 mM stock solution in PBS (pH 7.4). […] The concentration of BSA was controlled by the spectrophotometric method at 280 nm (with a molar coefficient of 43,824 cm^−1 M^−1). […] Simultaneously, a control sample containing BSA solution without any ligands was prepared. Measurements were performed in triplicate. All reagents were received from Sigma-Aldrich (St. Luis, MO, USA).
The circular dichroism spectra data were recorded using JASCO J-1500 spectropolarimeter (Tokyo, Japan) in the range of 205–250 nm, with a scanning speed of 200 nm/min and with 0.1 step resolution using a quartz cuvette with a length path of 0.1 cm. The measurements were conducted for binary (BSA–DRUG) and ternary (BSA–DRUG–GLICL) models to provide information about the influence of ligand binding on the protein structure. The baseline was corrected using a phosphate buffer, pH = 7.4.
Mean residue ellipticity (MRE) was calculated according to the following Equation (7) and expressed in deg cm^2 dmol^−1:(7) MRE=Θobs/cp·n·l·10 where Θobs is the observed CD (in mdegree), Cp is the molar concentration of BSA, n is the number of amino acid residues (583 for BSA), and l is the path length of the cuvette (0.1 cm).
The α-helical contents of free and modified BSA were calculated from MRE values at 208 nm with Equation (8):(8) α-helix (%)=MRE208−4000/33,000−4000 ·100 where MRE208 is the observed MRE value at 208 nm, 4000 is the MRE of the β-form and random coil conformation cross at 208 nm, and 33,000 is the MRE value of the pure α-helix of BSA at 208 nm.

Data set [2] addresses T1, bovine serum albumin (BSA). The note with it: for Stern–Volmer quenching constant KSV: GLICL as quencher 0–14 µM, DRUG 8 µM (DRUG:BSA 4:1), λex 280 nm. As to the method: as §1
Fluorescence intensities of ternary models (BSA–DRUG–GLICL) were recorded using a Jasco FP-8200 spectrofluorometer with Peltier-thermo Cell Holder ETC-814 (Tokyo, Japan) at excitation wavelength of 280 nm, equipped with 1.0 cm quartz cells. The slit widths were set at 5 nm. The measurements were conducted at two different temperatures, 298 and 310 K. The fluorescence spectra of the drugs alone were also recorded. Each spectrum background was corrected by subtracting the spectrum of the phosphate buffer as a blank sample.
According to the assumption that fluorophores in a protein molecule may differ in accessibility, modified Stern–Volmer Equation (2) was used for the construction of plots and to calculate quenching constants:(2) F0/F0−F=1/fa·KSV·Q+1/fa where F0 and F are the fluorescence intensities in the absence and presence of gliclazide (GLICL), respectively; fa is the fraction of the initial fluorescence accessible to the quencher; Ksv is the Stern–Volmer quenching constant; and Q is the concentration of the quencher (GLICL).
The binding parameters (binding constant and number of binding sites) were obtained from double-log modified Stern–Volmer Equation (3):(3) logF0−F/F=logKa+n·logQ where F0 and F are the fluorescence intensities in the absence and presence of the quencher (gliclazide), respectively; Ka is the binding constant of the complex BSA–DRUG–GLICL, expressed as M^−1; n is the number of bound gliclazide molecules; and Q is the concentration of the quencher (GLICL).

Data set [3] has as its target T1, bovine serum albumin (BSA). As to the method:
as §1
The thermodynamic analysis of the interaction between albumin and GLICL was performed on measurements at three temperatures (298, 303, 310 K) based on the van’t Hoff Equations (4)–(6):(4) ΔG=−R·T·lnKa (5) ΔG=ΔH−T·ΔS (6) lnKa=−ΔH/R·T+ΔS/R where ΔG is the free energy change, ΔH is the enthalpy change, ΔS is the entropy change, R is the universal gas constant, and T is the temperature.
The source holds these as a separate data set.

Data set [4] concerns plasma protein. As to conditions: cited from earlier work; for Binding to plasma protein: general statement, no reference given.
In data set [5] the test system is albumin. As to conditions: cited from earlier work.
Data set [6] has as its system BSA. On the set-up: method as in PMID 28888191. As to conditions: no additional ligand, cited from earlier work.
The mark [7] stands for this setting: BSA–GLICL complex in presence of DRUG, 298 303 310 K.

Values joined by “and” are separate entries in the source; they are usually repeats but may differ in a detail not shown here. Equal entries are not always repeated. Structures can show the parent of a compound that is named as a salt. Where two headings read alike, the source gives them in different places.

T1 sequence (P02769 25-607): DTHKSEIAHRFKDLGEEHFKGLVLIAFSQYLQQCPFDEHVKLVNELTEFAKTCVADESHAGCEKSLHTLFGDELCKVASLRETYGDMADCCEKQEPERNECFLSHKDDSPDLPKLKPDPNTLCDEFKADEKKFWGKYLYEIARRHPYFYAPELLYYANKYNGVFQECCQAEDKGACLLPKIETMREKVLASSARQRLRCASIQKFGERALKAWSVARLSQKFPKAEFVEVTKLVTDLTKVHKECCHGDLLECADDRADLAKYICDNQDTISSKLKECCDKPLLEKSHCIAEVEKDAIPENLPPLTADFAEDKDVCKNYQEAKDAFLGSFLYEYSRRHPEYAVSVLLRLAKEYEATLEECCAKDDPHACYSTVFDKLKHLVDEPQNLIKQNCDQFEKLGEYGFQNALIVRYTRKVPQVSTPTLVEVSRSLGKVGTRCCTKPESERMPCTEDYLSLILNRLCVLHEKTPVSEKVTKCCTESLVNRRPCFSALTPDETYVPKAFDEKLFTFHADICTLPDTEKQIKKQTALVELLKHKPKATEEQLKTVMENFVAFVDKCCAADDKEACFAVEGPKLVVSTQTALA

Turning to `CCOC(=O)C1=C(COCCN)NC(C)=C(C(=O)OC)C1c1ccccc1Cl` (stereo not drawn) [AML, amlodipine besylate], in data set [1], the “Decreased α-Helix (%)” value is recorded as 0.7%. In addition, in data set [2], the “Ka, association constant of BSA–GLICL complex in presence of DRUG” value (from here on “Ka, association constant”) was 1.15 ± 0.01 10^4 M^−1; the “n, number of binding sites (bound gliclazide molecules)” value is 0.93 ± 0.01 and 0.97 ± 0.01. Besides, the ΔS in data set [3] was 100.32 J/mol K. For the same molecule, the “Binding to plasma protein” value in data set [4] was “over 95%”.

As to `CC(C)NCC(O)COc1ccc(CC(N)=O)cc1` (stereo not drawn) [ATN, atenolol], the “Association constant, site 1 of albumin” value in data set [5] is listed as “approx. 10^3 M^−1”.

For `Cc1ccc(S(=O)(=O)NC(=O)NN2CC3CCCC3C2)cc1` (stereo not drawn) [GLICL, gliclazide], the “Ka of BSA–GLICL (binary model)” value in data set [6] (298 K) is given as 3.80 10^4 M^−1; in data set [6] (310 K), 3.76 10^4 M^−1. Further, the Plasma protein binding entry in data set [4] was “up to 94%”.

Regarding `CCOC(=O)[C@H](CCc1ccccc1)N[C@@H](C)C(=O)N1Cc2ccccc2C[C@H]1C(=O)O` [QUI, quinapril hydrochloride], the “α-Helix Content (%)” value is given as 67.6% in data set [1] (binary BSA–DRUG, molar ratio 1:4, 310 K (BSA alone 68.7)) and 63.1% in data set [1] (ternary BSA–DRUG–GLICL, BSA:Ligand 1:4, BSA:GLICL 1:7, 310 K (BSA alone 68.7)). Also, the “Decreased α-Helix (%)” value was 1.1% in data set [1] (binary BSA–DRUG, molar ratio 1:4, 310 K, vs BSA alone) and 5.6% in data set [1] (ternary BSA–DRUG–GLICL, BSA:Ligand 1:4, BSA:GLICL 1:7, 310 K, vs BSA alone). Moreover, the “n, number of binding sites (bound gliclazide molecules)” value in data set [2] (BSA–DRUG–GLICL, 298 K) was found to be 1.04 ± 0.01; in data set [2] (BSA–DRUG–GLICL, 310 K), 1.03 ± 0.03. Further, the “Ka, association constant” value in data set [2] (BSA–DRUG–GLICL, DRUG:BSA 4:1, 298 K) is on record as 1.65 ± 0.02 10^4 M^−1; in data set [2] (BSA–DRUG–GLICL, DRUG:BSA 4:1, 310 K), 2.09 ± 0.07 10^4 M^−1. The “Stern–Volmer quenching constant KSV” value in data set [2] (BSA–DRUG–GLICL, 298 K) is reported as 2.23 ± 0.01 10^4 M^−1; in data set [2] (BSA–DRUG–GLICL, 310 K), 0.96 ± 0.16 10^4 M^−1. For the same molecule, the “Mechanism of quenching of BSA fluorescence by GLICL in presence of DRUG” value in data set [2] (from temperature dependence of KSV, 298 vs 310 K) is on record as “static mechanism”. In addition, the “Change of Ka of BSA–GLICL complex in comparison to the binary model” value in data set [2] (ternary vs binary model (binary Ka from ref 24)) is “more than a twofold decrease”. The ΔH in data set [3] (setting [7]) came to 15.08 kJ/mol. Moreover, the ΔS in data set [3] (setting [7]) is recorded as 131.36 J/mol K. Moreover, the ΔG in data set [3] (BSA–GLICL complex in presence of DRUG, 298 K) was -24.07 kJ/mol; in data set [3] (BSA–GLICL complex in presence of DRUG, 303 K), -24.72 kJ/mol; in data set [3] (BSA–GLICL complex in presence of DRUG, 310 K), -25.64 kJ/mol. In data set [4], the “Binding to plasma protein” value is reported as “over 95%”.

Consider `CCCCC(=O)N(Cc1ccc(-c2ccccc2-c2nnn[nH]2)cc1)[C@H](C(=O)O)C(C)C` [VAL, valsartan], for which, in data set [1], the “Decreased α-Helix (%)” value is 1.0% and 3.5%; the “α-Helix Content (%)” value was 67.7% and 65.2%. Further, in data set [2], the “Ka, association constant” value is 0.12 ± 0.04 10^4 M^−1; the “Mechanism of quenching of BSA fluorescence by GLICL in presence of DRUG” value is listed as “static mechanism”; the “n, number of binding sites (bound gliclazide molecules)” value was 0.87 ± 0.01 and 0.74 ± 0.02. Also, in data set [3], the ΔG is -21.80 kJ/mol, the ΔH is 100.10 kJ/mol and the ΔS was 393.25 J/mol K. Besides, the Protein binding in data set [4] is 95%.

These data come from paper PMC8745505, “In Vitro Investigation of Binding Interactions between Albumin–Gliclazide Model and Typical Hypotensive Drugs” (International Journal of Molecular Sciences, 2021).
